Results from article PMC6627609, “Targeting Quorum Sensing: High-Throughput Screening to Identify Novel LsrK Inhibitors” (International Journal of Molecular Sciences, 2019).
Counter-ions that a name gives are not always drawn.

Biological target: LsrK (Salmonella typhimurium, UniProt Q8ZKQ6)
Assay: biochemical
Format: biochemical, S. typhimurium
Details: for Inhibition (%): 50 µM

Sequence of LsrK (Q8ZKQ6 whole entry): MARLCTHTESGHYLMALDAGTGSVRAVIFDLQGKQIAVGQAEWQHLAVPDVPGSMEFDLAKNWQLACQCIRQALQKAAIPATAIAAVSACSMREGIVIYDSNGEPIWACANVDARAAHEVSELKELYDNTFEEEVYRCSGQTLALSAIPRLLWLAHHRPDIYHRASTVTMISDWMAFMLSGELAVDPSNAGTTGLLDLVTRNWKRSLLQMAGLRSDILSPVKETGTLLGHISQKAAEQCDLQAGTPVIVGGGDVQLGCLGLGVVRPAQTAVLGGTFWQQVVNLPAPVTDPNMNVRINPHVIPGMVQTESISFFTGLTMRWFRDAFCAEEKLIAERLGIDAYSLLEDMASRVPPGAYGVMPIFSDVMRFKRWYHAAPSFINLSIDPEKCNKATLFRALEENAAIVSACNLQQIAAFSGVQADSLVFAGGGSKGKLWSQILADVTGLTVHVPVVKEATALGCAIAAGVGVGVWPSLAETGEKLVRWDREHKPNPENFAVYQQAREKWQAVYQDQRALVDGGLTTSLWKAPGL

| Molecule | inhibition at 50 µM | other results |
| --- | --- | --- |
| C[N+](C)(C)CC(O)CC(=O)O.[Cl-] (stereo not drawn) [CARNITINE (dl) HYDROCHLORIDE] |  | Inhibition (%): 3 |
| Cc1cc(C)cc(OCC2CNC(=O)O2)c1 (stereo not drawn) [METAXALONE] | 0% |  |
| O=C(Oc1cccc2cccnc12)c1ccccc1 [BENZOXIQUINE] | 0% |  |
| CCNC(=O)CC[C@H](N)C(=O)O [THEANINE] | 1% |  |
| CC1(C)O[C@@H]2C[C@H]3[C@@H]4CCC5=CC(=O)CC[C@]5(C)[C@@]4(F)[C@@H](O)C[C@]3(C)[C@]2(C(=O)CCl)O1 [HALCINONIDE] | 0% |  |
| COc1cc(O)cc(OC)c1OC [ANTIAROL] | 21% |  |
| OC1CCCCC1N1CCC(c2ccccc2)CC1 (stereo not drawn) [VESAMICOL HYDROCHLORIDE] | 1% |  |
| CO[C@@H]1[C@@H](OC(N)=O)[C@@H](O)[C@H](Oc2ccc3c(O)c(NC(=O)c4ccc(O)c(CC=C(C)C)c4)c(=O)oc3c2C)OC1(C)C [NOVOBIOCIN SODIUM] | 0% |  |
| CN(C)[C@@H]1C(O)=C(C(=O)NCN2CCCC2)C(=O)[C@@]2(O)C(O)=C3C(=O)c4c(O)cccc4[C@@](C)(O)[C@H]3C[C@@H]12 [ROLITETRACYCLINE] | 5% |  |
| O=c1ccc2cc(O[C@@H]3O[C@H](CO)[C@@H](O)[C@H](O)[C@H]3O)c(O)cc2o1 [AESCULIN] |  | Inhibition (%): 1 |
| C[C@@H]1[C@H](O)[C@@H](C)/C=C/C=C/CC/C=C/C=C/C=C/C=C/C(O[C@H]2O[C@H](C)[C@@H](O)[C@H](N)[C@@H]2O)CC2O[C@](O)(CC(O)C(O)CCC(O)CC(O)CC(O)CC(=O)O[C@H]1C)CC(O)C2C(=O)O (stereo partly drawn) [NYSTATIN] |  | Inhibition (%): 41 |
| Oc1cc(O)c2c(c1)O[C@H](c1cc(O)c(O)c(O)c1)[C@H](O)C2 [EPIGALLOCATECHIN] | 89% |  |
| Cc1cccc(C(=O)O)c1O [HYDROXYTOLUIC ACID] | 1% |  |
| CN1C[C@H](CNC(=O)OCc2ccccc2)C[C@@H]2c3cccc4c3c(cn4C)C[C@H]21 [METERGOLINE] | 3% |  |
| NCCC[C@H](N)C(=O)O [ORNITHINE] | 1% |  |
| CC(=O)O[C@H]1CC[C@]2(C)[C@H]3CC[C@@]4(C)[C@H](c5ccoc5)OC(=O)[C@H]5O[C@]54[C@]3(C)[C@H](OC(C)=O)C[C@H]2C1(C)C [3beta-ACETOXYDEOXODIHYDROGEDUNIN] |  | Inhibition (%): 2 |
| COc1c2c(cc3c1OCO3)CC[N+](C)=C2 [COTARNINE CHLORIDE] | 2% |  |
| CO/N=C(/C(=O)N[C@@H]1C(=O)N2C(C(=O)[O-])=C(CSc3nc(=O)c([O-])nn3C)CS[C@H]12)c1csc(N)n1.O.O.O.[Na+].[Na+] [CEFTRIAXONE SODIUM TRIHYDRATE] |  | Inhibition (%): 0 |
| COc1cc(O)c(C(=O)/C=C/c2ccc(O)c(OC)c2)c(OC)c1 [2'.4-DIHYDROXY-3.4'.6'-TRIMETHOXYCHALCONE] |  | Inhibition (%): 1 |
| NC(CO)C(=O)NNCc1ccc(O)c(O)c1O (stereo not drawn) [BENSERAZIDE HYDROCHLORIDE] | 97% |  |
| O=C(/C=C/C=C/c1ccc2c(c1)OCO2)N1CCCCC1 [PIPERINE] | 1% |  |
| Cc1cc(C(C)(C)CC(C)(C)C)ccc1OCCOCC[N+](C)(C)Cc1ccccc1.[Cl-] [METHYLBENZETHONIUM CHLORIDE] |  | Inhibition (%): 89 |
| CNC(=O)Oc1ccc2c(c1)[C@]1(C)CCN(C)[C@@H]1N2C [PHYSOSTIGMINE SALICYLATE] | 1% |  |
| C=CC1=C(C)c2cc3[nH]c(cc4nc(cc5[nH]c(cc1n2)c(C)c5CCC(=O)O)C(CCC(=O)O)=C4C)c(C)c3C=C [PROTOPORPHYRIN IX] | 100% | IC50: 9 µM |
| O=C(O)COCCN1CCN(C(c2ccccc2)c2ccc(Cl)cc2)CC1 (stereo not drawn) [CETIRIZINE HYDROCHLORIDE] | 1% |  |
| C=CCc1cc(OC)c2c(c1OC)OCO2 [APIOLE] |  | Inhibition (%): 1 |
| Nc1ccc(C(=O)O)c(O)c1 [AMINOSALICYLATE SODIUM] | 1% |  |

| Molecule | inhibition at 50 µM | other results |
| --- | --- | --- |
| CC(=O)c1cc2ccccc2oc1=O [3-ACETYLCOUMARIN] | 0% |  |
| BACITRACIN |  | Inhibition (%): 5 |
| COC1=C(OC)C(=O)C(C/C=C(\C)CC/C=C(\C)CC/C=C(\C)CC/C=C(\C)CC/C=C(\C)CC/C=C(\C)CC/C=C(\C)CC/C=C(\C)CC/C=C(\C)CCC=C(C)C)=C(C)C1=O [UBIDECARENEONE] | 1% |  |
| CCN(CC)C(=S)SSC(=S)N(CC)CC | 154% |  |
| OC[C@H]1O[C@H](O[C@]2(CCl)O[C@H](CCl)[C@@H](O)[C@@H]2O)[C@H](O)[C@@H](O)[C@H]1Cl [SUCRALOSE] | 3% |  |
| C[C@@H]1CC[C@@]23CCC4(C)[C@@](C=CC5[C@@]6(C)CCC(=O)C(C)(C)C6CC[C@]54C)(OC2=O)C3[C@H]1C (stereo partly drawn) [3-OXOURSAN (28-13)OLIDE] | 1% |  |
| C=CCCCCCCCCC(=O)O [UNDECYLENIC ACID] | 1% |  |
| O=c1[nH]cnc2nc[nH]c12 [HYPOXANTHINE] | 2% |  |
| O=C(O)/C=C/C=C/c1ccc2c(c1)OCO2 [PIPERIC ACID] | 0% |  |
| AGELASINE |  | Inhibition (%): 102 |
| O=c1c(O)c(-c2ccc(O)cc2)oc2cc(O)cc(O)c12 [KAEMPFEROL] | 0% |  |
| KHAYANTHONE |  | Inhibition (%): 11 |
| O=C1C(CC[S+]([O-])c2ccccc2)C(=O)N(c2ccccc2)N1c1ccccc1 (stereo not drawn) [SULFINPYRAZONE] | 129% |  |
| CC1CCC(NC(=O)N(CCCl)N=O)CC1 (stereo not drawn) [SEMUSTINE] | 0% |  |
| C=CCCCCCCCCC(=O)[O-].C=CCCCCCCCCC(=O)[O-].[Zn+2] [ZINC UNDECYLENATE] |  | Inhibition (%): 21 |
| CHLOROPHYLLIDE Cu COMPLEX Na SALT |  | Inhibition (%): 104 |
| O=C(O[C@@H]1Cc2c(O)cc(O)cc2O[C@@H]1c1ccc(O)c(O)c1)c1cc(O)c(O)c(O)c1 [EPICATECHIN MONOGALLATE] |  | Inhibition (%): 86 |
| Oc1ccc(Cl)cc1 [PARACHLOROPHENOL] | 1% |  |
| S=c1[nH]cnc2nc[nH]c12 [MERCAPTOPURINE] | 1% |  |
| COc1cc2nc(N3CCN(C(=O)C4CCCO4)CC3)nc(N)c2cc1OC (stereo not drawn) [TERAZOSIN HYDROCHLORIDE] | 1% |  |
| COc1ccc(-c2oc3c(CC=C(C)C)c(O[C@@H]4O[C@H](CO)[C@@H](O)[C@H](O)[C@H]4O)cc(O)c3c(=O)c2O[C@@H]2O[C@@H](C)[C@H](O)[C@@H](O)[C@H]2O)cc1 [ICARIIN] | 36% |  |
| Nc1nc2c(c(=O)[nH]1)N(C=O)C(CNc1ccc(C(=O)N[C@@H](CCC(=O)O)C(=O)O)cc1)CN2 (stereo partly drawn) [LEUCOVORIN CALCIUM] | 5% |  |
| CC(C)OC(=O)C(C)(C)Oc1ccc(C(=O)c2ccc(Cl)cc2)cc1 [FENOFIBRATE] | 1% |  |
| CCC[C@@H]1C[C@@H](C(=O)N[C@@H]([C@H]2O[C@H](SC)[C@H](O)[C@@H](O)[C@H]2O)[C@H](C)Cl)N(C)C1 [CLINDAMYCIN HYDROCHLORIDE] | 0% |  |
| CC(C)(C(=O)O)c1ccc(C(O)CCCN2CCC(C(O)(c3ccccc3)c3ccccc3)CC2)cc1 (stereo not drawn) [FEXOFENADINE HYDROCHLORIDE] | 0% |  |
| O=C1c2cccc(O)c2C(=O)c2c(O)cccc21 [DANTHRON] | 1% |  |
| O=C(CNC(=O)c1ccc(Cl)cc1)NO [BENURESTAT] |  | Inhibition (%): 3 |

| Molecule | inhibition at 50 µM | other results |
| --- | --- | --- |
| Nc1nc[nH]n1 [3-AMINO-1.2.4-TRIAZOLE] |  | Inhibition (%): 1 |
| O=C1OC2(c3ccc(O)cc3Oc3cc(O)ccc32)c2ccccc21 [FLUORESCEIN] | 1% |  |
| COc1c(O)cc(O)cc1O [IRETOL] | 1% |  |
| C=N[C@@H](C(=O)N[C@@H]1C(=O)N2[C@@H]1SC(C)(C)[C@@H]2C(=O)[O-])c1ccccc1.[Na+] [METAMPICILLIN SODIUM] |  | Inhibition (%): 2 |
| CCOC(=O)c1ncn2c1CN(C)C(=O)c1cc(F)ccc1-2 [FUMAZENIL] |  | Inhibition (%): 0 |
| CC1=C(/C=C/C(C)=C/C=C/C(C)=C/CO)C(C)(C)CCC1 [RETINOL] | 0% |  |
| O=c1c(O)cc([C@H]2Oc3cc(O)cc(O)c3C[C@H]2O)cc2c([C@H]3Oc4cc(O)cc(O)c4C[C@H]3O)cc(O)c(O)c12 [THEAFLAVIN] | 133% |  |
| Cc1cc(OC(=O)c2c(C)cc(O)cc2O)cc(O)c1C(=O)O [LECANORIC ACID] | 0% |  |
| CC(=O)O[C@H]1CC[C@]2(C)[C@H]3CC=C4[C@@H]5CC(C)(C)CC[C@]5(C(=O)O)CC[C@@]4(C)[C@]3(C)CC[C@H]2C1(C)C [OLEANOLIC ACID ACETATE] |  | Inhibition (%): 14 |
| C=CC[S+]([O-])C[C@H](N)C(=O)O (mixture of isomers) [L(+/-)-ALLIIN] |  | Inhibition (%): 44 |
| O=C(CCCN1CCN(c2ccccn2)CC1)c1ccc(F)cc1 [AZAPERONE] | 25% |  |
| CC(=O)O[C@@H]1C[C@H]2C(C)(C)C(=O)C=C[C@]2(C)[C@H]2CC[C@]3(C)C(=CC(=O)O[C@H]3c3ccoc3)[C@@]21C [DEOXYGEDUNIN] |  | Inhibition (%): 0 |
| Nc1ccc(O)c(C(=O)O)c1 [MESALAMINE] | 105% |  |
| CCC(N)C(O)c1ccc(O)c(O)c1 (stereo not drawn) [ETHYLNOREPINEPHRINE HYDROCHLORIDE] | 4% |  |
| NCCCCN=C(N)N [AGMATINE SULFATE] | 0% |  |
| CC(=O)N[C@@H](Cc1c[nH]c2ccccc12)C(=O)O [ACETYLTRYPTOPHAN] | 6% |  |
| Sc1nc2ccccc2s1 [2-MERCAPTOBENZOTHIAZOLE] | 1% |  |
| CC1=NCCc2c1[nH]c1cc(O)ccc21 [HARMALOL HYDROCHLORIDE] | 4% |  |
| c1ccc(CN(CC2=NCCN2)c2ccccc2)cc1 [ANTAZOLINE PHOSPHATE] | 1% |  |
| CC(=O)OC[C@@]1(O)C[C@@]23CC[C@@H]4c5ccoc5CC[C@@]4(C)[C@@H]2CC[C@@H]1C3 [CAFESTOL ACETATE] | 1% |  |
| CO[C@@]1(NC(=O)C(C(=O)O)c2ccc(O)cc2)C(=O)N2C(C(=O)O)=C(CSc3nnnn3C)CO[C@@H]21 (stereo partly drawn) [MOXALACTAM DISODIUM] | 1% |  |
| Cc1ccc(Cl)c(Nc2ccccc2C(=O)O)c1Cl [MECLOFENAMATE SODIUM] | 6% |  |
| Oc1ccc(Cl)cc1Cc1cc(Cl)ccc1O [DICHLOROPHENE] | 1% |  |
| CO/N=C1\CN(c2nc3c(cc2F)c(=O)c(C(=O)O)cn3C2CC2)CC1CN (stereo not drawn) [GEMIFLOXACIN MESYLATE] | 0% |  |
| Cc1nc(C)c(Cl)c(O)c1Cl [CLOPIDOL] | 2% |  |
| COc1ccc(/C=C/C(=O)Nc2ccccc2C(=O)O)cc1OC | 15% |  |
